Measurements taken from US8247530B2, “N-alkylated cyclic peptide melanocortin agonists” (Palatin Technologies, Inc., priority 2005, dated 2012).
Where a SMILES comes first, the peptide text is derived from it. Bridges are numbered along the chain shown (N, C = ends). [ ]: non-standard residue; d: D form. 1Nal = N[C@@H](Cc1cccc2ccccc12)C(=O)O; Nle = CCCC[C@H](N)C(=O)O

Key:
hMC3-R (HEK-293 cells) = target: T1, hMC3-R (HEK-293 cells) (Homo sapiens, UniProt P41968); test: cAMP functional assay for agonist/antagonist status, MC3-R; type: cell-based; conditions: for EC50: cAMP accumulation; for agonist/antagonist status as to MC3-R: cAMP assay; for efficacy relative to NDP-α-MSH, MC3-R: cAMP response ratio to NDP-α-MSH
T1 construct: expressed in transfected cells; host or cells: HEK-293
Description: (§1) Functional evaluation of peptides at melanocortin receptors was performed by measuring the accumulation of intracellular cAMP in HEK-293 cells expressing hMC3-R, hMC4-R or hMC5-R, and in B-16 mouse melanoma cells expressing MC1-R. Cells suspended in Earle's Balanced Salt Solution containing 10 mM HEPES (pH 7.5), 5 mM MgCl2, 1 mM glutamine, 0.5% albumin and 0.3 mM 3-isobutyl-1-methyl-xanthine, a phosphodiesterase inhibitor, were plated in 96 well plates at a density of 0.5×10^5 cells per well. Cells were incubated with the test peptides in the presence or absence of NDP-α-MSH for 1 hour at 37° C. cAMP levels in the cell lysates were measured using an EIA kit (Amersham). Data analysis and EC50 values were determined using nonlinear regression analysis with Prism Graph-Pad software.
(§2) The agonist/antagonist status with respect to MC1-R, MC4-R and MC5-R of certain peptides of the invention was determined. Antagonistic activity was determined by measuring the inhibition of α-MSH-induced or NDP-α-MSH-induced cAMP levels following exposure to the peptides as in the preceding descriptions.

hMC4-R (HEK-293 cells) = target: T2, hMC4-R (HEK-293 cells) (Homo sapiens, UniProt P32245); test: cAMP functional assay for agonist/antagonist status, MC4-R; type: cell-based; conditions: for EC50: cAMP accumulation; for agonist/antagonist status as to MC4-R: cAMP assay; for efficacy relative to NDP-α-MSH, MC4-R: cAMP response ratio to NDP-α-MSH
T2 construct: expressed in transfected cells; host or cells: HEK-293
Description: as §1, §2
Evaluation of the molecules to elicit a functional response in HEK-293 cells expressing hMC4-R for agonistic activity was done by measuring the accumulation of intracellular cAMP following treatment. Confluent HEK-293 cells over-expressing MC4-R receptors were detached by enzyme free cell suspension buffer. Cells were suspended in Earle's Balanced Salt Solution containing 10 mM HEPES (pH 7.5), 1 mM MgCl2, 1 mM glutamine, 0.5% albumin and 0.3 mM 3-isobutyl-1-methyl-[…]. The cells were plated in a 96 well plate at a density of 0.5×10^5 cells per well and pre-incubated for 60 minutes. The cells were then challenged with the test peptides dissolved in dimethylsulfoxide (DMSO) at a concentration range of 0.05-5000 nM in a total assay volume of 200 μL for 1 hour at 37° C. The concentration of DMSO was held at 1% in the assay mixture. NDP-α-MSH was used as the reference agonist. At the end of the incubation period the cells were disrupted by the addition of 50 μL lysis buffer from the cAMP EIA kit (Amersham). Complete rupture of the cells was ensured by pipetting the cells. cAMP levels in the cell lysates were measured after appropriate dilution using the EIA kit (Amersham) method. Data analysis and EC50 values were determined by using nonlinear regression analysis with the Prism Graph-Pad software.

male Sprague-Dawley rats = test: Penile erection induction in male rats; type: in vivo, rat
Description: The ability of peptides to induce penile erection (PE) in male rats was evaluated with selected peptides. Male Sprague-Dawley rats weighing 200-250 g were kept on a 12 hour on/off light cycle with food and water ad libitum. All behavioral studies were performed between 10 a.m. and 5 p.m. Groups of 4-8 rats were administered peptides at a variety of doses via an intravenous (IV) route, and may alternatively be administered peptide by an intracerebroventricular (ICV) route. Immediately after treatment, rats were placed into individual polystyrene cages (27 cm long, 16 cm wide, and 25 cm high) for behavioral observation. […] For rats administered peptide by an ICV routes, rats are observed for two hours.
Selected peptides were tested as in Example 5. Peptide was administered by IV routes, and used at dose levels ranging from 1 μg/kg to 1000 μg/kg.

MC4-R [1] = target: T3, MC4-R (Homo sapiens, UniProt P32245); test: Competitive inhibition binding assay using [I125]-NDP-α-MSH, hMC4-R; conditions: radioligand [I125]-NDP-α-MSH, HEK-293 membranes; read-out: Ki (NDP-α-MSH) MC4-R
T3 construct: expressed in transfected cells; host or cells: HEK-293
Description: (§3) The assay tube also contained a chosen concentration of the test peptide of this invention, typically a 1 μM concentration, for determining its efficacy in inhibiting the binding of [I^125]NDP-α-MSH to the receptor.
(§4) The assay mixture was incubated for 60 minutes at 37° C., then filtered and the membranes washed three times with ice cold phosphate buffered saline. The filter was dried and counted in a gamma counter for remaining radioactivity bound to the membranes. 100% specific binding was defined as the difference in radioactivity (cpm) bound to cell membranes in the absence and presence of 1 μM NDP-α-MSH. […] Each assay was conducted in triplicate. The Ki (nM) of certain peptides of the invention were determined using similar assay protocols and testing peptides over a wider dose range.

MC4-R [2] = target: T3, MC4-R; test: Competitive inhibition Ki (AgRP), MC4-R; type: binding; conditions: AgRP as competing ligand
MC3-R [3] = target: T4, MC3-R (Homo sapiens, UniProt P41968); test: Competitive inhibition binding assay using [I125]-NDP-α-MSH, hMC3-R; conditions: radioligand [I125]-NDP-α-MSH, HEK-293 membranes; read-out: Ki (NDP-α-MSH) MC3-R
T4 construct: expressed in transfected cells; host or cells: HEK-293
Description: as §3, §4

MC3-R [4] = target: T4, MC3-R; test: Competitive inhibition Ki (AgRP), MC3-R; type: binding; conditions: AgRP as competing ligand
Description: as §4

hMC5-R = target: T5, hMC5-R (Homo sapiens, UniProt P33032); test: Competitive inhibition binding assay using [I125]-NDP-α-MSH, hMC5-R; conditions: radioligand [I125]-NDP-α-MSH, HEK-293 membranes; read-out: Ki (NDP-α-MSH) MC5-R
T5 construct: expressed in transfected cells; host or cells: HEK-293
Description: as §3, §4

[5] = target: T6, MC1-R (B-16 mouse melanoma cells) (Mus musculus, UniProt Q01727); test: cAMP functional assay for agonist/antagonist status, MC1-R; type: cell-based; conditions: for EC50: cAMP accumulation; for agonist/antagonist status as to MC1-R: cAMP assay; for efficacy relative to NDP-α-MSH, MC1-R: cAMP response ratio to NDP-α-MSH
T6 construct: B-16 mouse melanoma cells (containing MC1-R); endogenous in cells; host or cells: B-16 mouse melanoma cells
Description: Data analysis and EC50 values were determined using nonlinear regression analysis with Prism Graph-Pad software.
The agonist/antagonist status with respect to MC1-R, MC4-R and MC5-R of certain peptides of the invention was determined.

[6] = 1000 μg/kg IV, groups of 6 rats, one hour observation
[7] = peak dose 300 μg/kg IV, groups of 6 rats

T6 sequence (Q01727 whole entry): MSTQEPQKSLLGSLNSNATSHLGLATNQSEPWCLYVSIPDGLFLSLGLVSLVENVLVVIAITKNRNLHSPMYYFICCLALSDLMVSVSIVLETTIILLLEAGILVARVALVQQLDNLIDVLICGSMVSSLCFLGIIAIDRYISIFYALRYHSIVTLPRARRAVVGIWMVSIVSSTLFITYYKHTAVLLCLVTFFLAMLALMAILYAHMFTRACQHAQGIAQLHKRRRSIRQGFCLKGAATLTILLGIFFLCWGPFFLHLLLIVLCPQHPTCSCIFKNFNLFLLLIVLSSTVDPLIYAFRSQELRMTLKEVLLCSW
T4 sequence (P41968 whole entry): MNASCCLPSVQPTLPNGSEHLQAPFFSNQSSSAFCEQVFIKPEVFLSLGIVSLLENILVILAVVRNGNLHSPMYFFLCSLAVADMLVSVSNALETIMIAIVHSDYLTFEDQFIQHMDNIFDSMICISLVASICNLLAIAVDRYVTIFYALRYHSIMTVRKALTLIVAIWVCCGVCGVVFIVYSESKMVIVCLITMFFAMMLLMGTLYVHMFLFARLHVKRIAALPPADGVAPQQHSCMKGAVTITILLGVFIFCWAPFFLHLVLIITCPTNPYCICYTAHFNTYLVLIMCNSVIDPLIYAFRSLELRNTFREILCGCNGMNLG
T1 sequence (P41968 whole entry): as above
T3 sequence (P32245 whole entry): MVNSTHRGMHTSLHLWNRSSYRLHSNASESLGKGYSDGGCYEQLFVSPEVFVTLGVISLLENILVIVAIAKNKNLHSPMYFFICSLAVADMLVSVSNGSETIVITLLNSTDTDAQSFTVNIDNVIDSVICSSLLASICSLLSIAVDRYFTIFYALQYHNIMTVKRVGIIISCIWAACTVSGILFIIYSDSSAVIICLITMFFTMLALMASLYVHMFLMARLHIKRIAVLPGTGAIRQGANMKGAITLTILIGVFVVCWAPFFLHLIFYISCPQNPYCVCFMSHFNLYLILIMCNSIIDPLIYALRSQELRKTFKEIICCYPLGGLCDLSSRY
T2 sequence (P32245 whole entry): as above
T5 sequence (P33032 whole entry): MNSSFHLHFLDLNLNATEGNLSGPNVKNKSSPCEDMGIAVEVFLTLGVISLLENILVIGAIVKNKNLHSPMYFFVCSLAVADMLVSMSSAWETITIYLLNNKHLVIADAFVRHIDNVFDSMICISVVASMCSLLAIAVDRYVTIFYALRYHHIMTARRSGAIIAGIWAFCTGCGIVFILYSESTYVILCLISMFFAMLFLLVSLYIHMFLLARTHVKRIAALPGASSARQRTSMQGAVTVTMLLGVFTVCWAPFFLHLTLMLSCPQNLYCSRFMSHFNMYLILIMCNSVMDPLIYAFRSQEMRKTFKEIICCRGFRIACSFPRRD

SMILES | EC50 (hMC3-R (HEK-293 cells)) | EC50 (hMC4-R (HEK-293 cells)) | Ki (MC4-R [1]) | Ki (MC4-R [2]) | Ki (MC3-R [3]) | Ki (MC3-R [4]) | Ki (hMC5-R) | efficacy relative to NDP-α-MSH, MC3-R (hMC3-R (HEK-293 cells)) | efficacy relative to NDP-α-MSH, MC4-R (hMC4-R (HEK-293 cells)) | EC50 [5] | efficacy relative to NDP-α-MSH, MC1-R [5] | agonist/antagonist status as to MC3-R (hMC3-R (HEK-293 cells)) | agonist/antagonist status as to MC4-R (hMC4-R (HEK-293 cells)) | rats exhibiting at least one PE (male Sprague-Dawley rats; [6]) | agonist/antagonist status as to MC1-R [5] | PE effect at 300 μg/kg compared with 1000 μg/kg (male Sprague-Dawley rats; peak dose 300 μg/kg IV) | mean PEs per rat (male Sprague-Dawley rats; [7]) | rats exhibiting at least one PE (male Sprague-Dawley rats; [7])
CCCC[C@H](NC(C)=O)C(=O)N[C@H]1CC(=O)NCCCC[C@@H](C(=O)N(C)C)NC(=O)[C@H](Cc2cccc3ccccc23)NC(=O)[C@H](CCCNC(=N)N)NC(=O)[C@@H](Cc2ccccc2)NC(=O)[C@H](Cc2c[nH]c3ccccc23)NC1=O [Example 10, Ac-Nle-cyclo(-Asp-Trp-D-Phe-Arg-Nal 1-Lys)-N(CH3)2] (Ac-[Nle]DW[dF]R[1Nal]K-NMe2; lactam 2-7 (inferred)) |  |  |  | 50 nM |  | > 1000 nM |  |  | 0.8 | 2300 nM | 1.1 | inactive | agonist (response ratio compared to NDP-α-MSH of 0.7 and above were classified as full agonists) |  | agonist (response ratio compared to NDP-α-MSH of 0.7 and above were classified as full agonists) |  |  | 
CCCC[C@H](NC(C)=O)C(=O)N[C@H]1CC(=O)NCCCC[C@@H](C(=O)N(C)C)NC(=O)[C@H](Cc2cccc3ccccc23)NC(=O)[C@H](CCCNC(=N)N)NC(=O)[C@@H](Cc2ccccc2)NC(=O)[C@H](Cc2c[nH]cn2)NC1=O [Example 11, Ac-Nle-cyclo(-Asp-His-D-Phe-Arg-Nal 1-Lys)-N(CH3)2] | 394 nM |  |  | 10 nM |  | > 1000 nM |  | 1.1 | 0.7 | 15 nM | 0.8 | agonist (response ratio compared to NDP-α-MSH of 0.7 and above were classified as full agonists) | agonist (response ratio compared to NDP-α-MSH of 0.7 and above were classified as full agonists) | 100% | agonist (response ratio compared to NDP-α-MSH of 0.7 and above were classified as full agonists) | the same |  | 
CCNC(=O)[C@@H]1CCCCNC(=O)C[C@H](NC(C)=O)C(=O)N[C@@H](Cc2c[nH]cn2)C(=O)N[C@H](Cc2ccccc2)C(=O)N[C@@H](CCCNC(=N)N)C(=O)N[C@@H](Cc2c[nH]c3ccccc23)C(=O)N1 [Example 12, Ac-cyclo(-Asp-His-D-Phe-Arg-Trp-Lys)-NH—CH2—CH3] | 283 nM |  |  | 11 nM |  | 457 nM |  | 1.0 | 0.6 | 64 nM | 0.6 | agonist (response ratio compared to NDP-α-MSH of 0.7 and above were classified as full agonists) | partial agonist (Peptides with a ratio from 0.1 to 0.7 were classified as partial agonists) |  | partial agonist (Peptides with a ratio from 0.1 to 0.7 were classified as partial agonists) |  | 2.5 | 83%

The next molecules have a lower Ki (MC4-R [2]) than those just listed; values first:

EC50 (hMC3-R (HEK-293 cells)) | EC50 (hMC4-R (HEK-293 cells)) | Ki (MC4-R [1]) | Ki (MC4-R [2]) | Ki (MC3-R [3]) | Ki (MC3-R [4]) | Ki (hMC5-R) | efficacy relative to NDP-α-MSH, MC3-R (hMC3-R (HEK-293 cells)) | efficacy relative to NDP-α-MSH, MC4-R (hMC4-R (HEK-293 cells)) | EC50 [5] | efficacy relative to NDP-α-MSH, MC1-R [5] | SMILES | agonist/antagonist status as to MC3-R (hMC3-R (HEK-293 cells)) | agonist/antagonist status as to MC4-R (hMC4-R (HEK-293 cells)) | rats exhibiting at least one PE (male Sprague-Dawley rats; [6]) | agonist/antagonist status as to MC1-R [5] | PE effect at 300 μg/kg compared with 1000 μg/kg (male Sprague-Dawley rats; peak dose 300 μg/kg IV) | mean PEs per rat (male Sprague-Dawley rats; [7]) | rats exhibiting at least one PE (male Sprague-Dawley rats; [7])
3 nM | 0.6 nM | 0.34 nM | 0.15 nM | 11 nM | 9 nM | 5 nM |  |  |  |  | CCCC[C@H](NC(C)=O)C(=O)N[C@H]1CC(=O)NCCCC[C@@H](C(=O)NCC)NC(=O)[C@H](Cc2c[nH]c3ccccc23)NC(=O)[C@H](CCCNC(=N)N)NC(=O)[C@@H](Cc2ccccc2)NC(=O)[C@H](Cc2c[nH]cn2)NC1=O [Example 7, Ac-Nle-cyclo(-Asp-His-D-Phe-Arg-Trp-Lys)-NH—CH2—CH3] | agonist (response ratio compared to NDP-α-MSH of 0.7 and above were classified as full agonists) | agonist (response ratio compared to NDP-α-MSH of 0.7 and above were classified as full agonists) | 100% |  |  |  | 
17 nM | 0.2 nM | 0.27 nM | 0.5 nM | 8 nM |  | 7 nM |  |  |  |  | CCCC[C@H](NC(C)=O)C(=O)N[C@H]1CC(=O)NCCCC[C@@H](C(=O)N(C)C)NC(=O)[C@H](Cc2c[nH]c3ccccc23)NC(=O)[C@H](CCCNC(=N)N)NC(=O)[C@@H](Cc2ccccc2)NC(=O)[C@H](Cc2c[nH]cn2)NC1=O [Example 8, Ac-Nle-cyclo(-Asp-His-D-Phe-Arg-Trp-Lys)-N(CH3)2] | agonist (response ratio compared to NDP-α-MSH of 0.7 and above were classified as full agonists) | agonist (response ratio compared to NDP-α-MSH of 0.7 and above were classified as full agonists) | 100% |  |  |  | 
208 nM |  |  | 7 nM |  |  |  | 1.0 | 0.6 | 8 nM | 0.6 | CCCC[C@H](NC(C)=O)C(=O)N[C@H]1CC(=O)NCCCC[C@@H](C(=O)NCC)NC(=O)[C@H](Cc2cccc3ccccc23)NC(=O)[C@H](CCCNC(=N)N)NC(=O)[C@@H](Cc2ccccc2)NC(=O)[C@H](Cc2c[nH]cn2)NC1=O [Example 9, Ac-Nle-cyclo(-Asp-His-D-Phe-Arg-Nal 1-Lys)-NH—CH2—CH3] | agonist (response ratio compared to NDP-α-MSH of 0.7 and above were classified as full agonists) | partial agonist (Peptides with a ratio from 0.1 to 0.7 were classified as partial agonists) | 100% | partial agonist (Peptides with a ratio from 0.1 to 0.7 were classified as partial agonists) |  |  | 
